ChEMBL document CHEMBL4425143, “Design and synthesis of new homo and hetero bis-piperazinyl-1-propanone derivatives as 5-HT7R selective ligands over 5-HT1AR” (Bioorg Med Chem Lett, 2016)

Key:
[1] = target: T1, 5-hydroxytryptamine receptor 7 (Homo sapiens, UniProt P34969); assay: Displacement of [3H]-5-HT from human 5-HT7 receptor expressed in CHOK1 cell membranes after 30 mins by liquid scintillation spectrometry
[2] = target: T2, 5-hydroxytryptamine receptor 1A (Homo sapiens, UniProt P08908); assay: Displacement of [3H]-8-OH-DPAT from human 5-HT1A receptor expressed in CHOK1 cell membranes after 30 mins by liquid scintillation spectrometry
T2 sequence (P08908 whole entry): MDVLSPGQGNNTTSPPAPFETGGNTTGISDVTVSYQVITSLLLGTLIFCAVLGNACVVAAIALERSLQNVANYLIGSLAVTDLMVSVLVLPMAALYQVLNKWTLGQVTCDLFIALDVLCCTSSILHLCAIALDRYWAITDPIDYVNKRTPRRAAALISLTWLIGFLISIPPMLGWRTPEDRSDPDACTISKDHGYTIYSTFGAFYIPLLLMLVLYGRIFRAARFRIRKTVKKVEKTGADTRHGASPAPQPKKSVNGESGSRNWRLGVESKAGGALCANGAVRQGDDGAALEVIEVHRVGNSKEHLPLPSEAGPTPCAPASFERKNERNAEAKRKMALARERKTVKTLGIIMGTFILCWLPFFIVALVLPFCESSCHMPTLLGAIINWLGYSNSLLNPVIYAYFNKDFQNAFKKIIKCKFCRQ

[3] = target: T3, 5-hydroxytryptamine receptor 1A (Homo sapiens) (UniProt P08908); assay: Displacement of [3H]-8-OH-DPAT from human 5-HT1A receptor expressed in CHOK1 cell membranes at 10^-5M after 30 mins by liquid scintillation spectrometry
T3 sequence (whole entry): T2 sequence (P08908 whole entry)

[4] = target: T1, 5-hydroxytryptamine receptor 7; assay: Displacement of [3H]-5-HT from human 5-HT7 receptor expressed in CHOK1 cell membranes at 10^-5M after 30 mins by liquid scintillation spectrometry
[5] = Dissociation constant, pKa of the compound at pH 7.4; type: physicochemical

T1 sequence (P34969 whole entry): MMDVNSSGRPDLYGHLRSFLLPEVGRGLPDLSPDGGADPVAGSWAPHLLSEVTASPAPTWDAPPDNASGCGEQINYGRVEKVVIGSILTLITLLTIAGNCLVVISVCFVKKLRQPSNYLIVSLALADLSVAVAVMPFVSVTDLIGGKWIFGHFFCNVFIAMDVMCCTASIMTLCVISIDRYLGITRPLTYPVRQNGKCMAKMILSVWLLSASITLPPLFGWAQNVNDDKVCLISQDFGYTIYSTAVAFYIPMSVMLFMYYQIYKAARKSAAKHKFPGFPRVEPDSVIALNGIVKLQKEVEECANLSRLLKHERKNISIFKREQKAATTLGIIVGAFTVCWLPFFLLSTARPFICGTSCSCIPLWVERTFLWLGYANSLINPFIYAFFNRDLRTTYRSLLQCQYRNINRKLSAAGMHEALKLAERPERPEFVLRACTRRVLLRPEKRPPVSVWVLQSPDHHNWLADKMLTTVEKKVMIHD

Structure (SMILES) | Ki [1] [nM] | Ki [2] [nM] | inhibition [3] [%] | inhibition [4] [%] | pKa [5]
CCOc1ccccc1N1CCN(CCC(=O)N2CCN(c3cccc(Cl)c3)CC2)CC1 | 119 | 15.2 | – | – | –
COc1ccccc1N1CCN(C(=O)CCN2CCN(Cc3ccccc3)CC2)CC1 | 24.2 | – | < 50 | – | –
O=C(CCN1CCN(Cc2ccccc2)CC1)N1CCN(c2cccc(Cl)c2)CC1 | 54.7 | 101 | – | – | –
O=C(CCNCc1ccccc1)N1CCN(c2ccccc2)CC1 | – | 938 | – | < 50 | –
O=C(CCN1CCN(Cc2ccccc2)CC1)N1CCN(c2ccccc2Cl)CC1 | 50.2 | – | < 50 | – | –
O=C(CCN1CCN(c2ccccc2)CC1)N1CCN(c2cccc(Cl)c2)CC1 | – | 1070 | – | < 50 | –
O=C(CCN1CCN(c2ccc(Cl)cc2)CC1)N1CCN(c2cccc(Cl)c2)CC1 | 2370 | 302 | – | – | –
O=C(CCNCc1ccccc1)NCc1ccccc1 | 176 | 3750 | – | – | –
O=C(CCN1CCN(Cc2ccccc2)CC1)NCc1ccccc1 | 4.34 | 0.34 | – | – | –
O=C(CCN1CCN(Cc2ccccc2)CC1)N1CCN(c2ccc(Cl)cc2)CC1 | 36.6 | – | < 50 | – | –
O=C(CCN1CCN(c2cccc(Cl)c2)CC1)N1CCN(c2cccc(Cl)c2)CC1 | 2760 | 142 | – | – | –

More lines, now with the values ahead:

Ki [1] [nM] | Ki [2] [nM] | inhibition [3] [%] | inhibition [4] [%] | pKa [5] | Structure (SMILES)
23.5 | – | < 50 | – | – | O=C(CCN1CCN(Cc2ccccc2)CC1)N1CCN(c2ncccn2)CC1
462 | 1680 | – | – | – | O=C(CCN1CCN(c2ccc(Cl)cc2)CC1)N1CCN(c2ccccc2)CC1
32.7 | 33.5 | – | – | – | O=C(CCN1CCN(c2cccc(Cl)c2)CC1)N1CCN(c2ccccc2)CC1
29.5 | – | < 50 | – | – | O=C(CCN1CCN(Cc2ccccc2)CC1)N1CCN(c2ccccn2)CC1
52 | – | < 50 | – | 8.55 | O=C(CCN1CCN(Cc2ccccc2)CC1)N1CCN(c2ccccc2)CC1
– | – | < 50 | < 50 | – | COc1ccc(N2CCN(C(=O)CCN3CCN(Cc4ccccc4)CC3)CC2)cc1
80.3 | 81.8 | – | – | – | CCOc1ccccc1N1CCN(CCC(=O)N2CCN(c3ccccc3)CC2)CC1
197 | 350 | – | – | – | O=C(CCCCN1CCN(c2ccccc2)CC1)N1CCN(c2ccccc2)CC1
26.2 | 272 | – | – | 8.11 | O=C(CCN1CCN(c2ccccc2)CC1)N1CCN(c2ccccc2)CC1
